According to ChEMBL document CHEMBL1136184, “Identification of a novel class of orally active pyrimido[5,4-3][1,2,4]triazine-5,7-diamine-based hypoglycemic agents with protein tyrosine phosphatase inhibitory activity” (Bioorg Med Chem Lett, 2003):
Several values for one entry are separate records, joined by “and”; a condition that tells them apart may be missing. Identical values can stand only once.

What was measured:
[1] = molecular target: T1, Tyrosine-protein phosphatase non-receptor type 1 (Homo sapiens, UniProt P18031); assay: Inhibition of Protein-tyrosine phosphatase 1B in 300 nM DTT
T1 sequence (P18031 whole entry): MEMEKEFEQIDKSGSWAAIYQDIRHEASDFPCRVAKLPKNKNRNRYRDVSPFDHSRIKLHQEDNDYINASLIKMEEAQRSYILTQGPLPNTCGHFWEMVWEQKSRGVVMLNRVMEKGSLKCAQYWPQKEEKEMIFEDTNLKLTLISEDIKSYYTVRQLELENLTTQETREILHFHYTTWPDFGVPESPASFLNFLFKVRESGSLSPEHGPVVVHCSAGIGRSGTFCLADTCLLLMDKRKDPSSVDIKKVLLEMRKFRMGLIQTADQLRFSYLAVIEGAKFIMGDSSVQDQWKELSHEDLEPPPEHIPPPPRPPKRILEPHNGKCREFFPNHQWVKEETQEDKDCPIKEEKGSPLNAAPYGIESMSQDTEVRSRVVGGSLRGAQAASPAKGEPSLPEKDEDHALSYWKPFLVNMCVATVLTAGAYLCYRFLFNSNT

[2] = molecular target: T1, Tyrosine-protein phosphatase non-receptor type 1; assay: Inhibition of Protein-tyrosine phosphatase 1B in 2 mM DTT
[3] = molecular target: Receptor-type tyrosine-protein phosphatase alpha (Homo sapiens, UniProt P18433); assay: In vitro inhibitory concentration required against Protein-tyrosine phosphatase alpha in the presence of 300 nM DTT
[4] = tested on: Mus musculus; assay: Percent change in blood glucose in male ob/ob mice dosed at 5 mg/kg orally evaluated 2 hr postdose on day 5; type: functional; details: route oral
[5] = Oral availability at 50 mg/kg po in male mice; type: ADME, organism-based; set-up: dose 50 mg/kg, route oral; details: mouse, in vivo
[6] = Steady state volume of distribution was determined in mice; type: ADME, organism-based; details: mouse, in vivo; read-out: Vss
[7] = Cmax value was determined; type: ADME, organism-based; details: mouse, in vivo
[8] = molecular target: Receptor-type tyrosine-protein phosphatase F (Homo sapiens, UniProt P10586); assay: In vitro inhibitory concentration required against Leukocyte antigen related receptor phosphatase (LAR) in the presence of 300 nM DTT
[9] = Half life in mice; type: ADME, organism-based; details: mouse, in vivo
[10] = Plasma clearance in mice; type: ADME, organism-based; details: mouse
[11] = molecular target: T2, Tyrosine-protein phosphatase non-receptor type 11 (Homo sapiens, UniProt Q06124); assay: In vitro inhibitory concentration required against Tyrosine phosphatase SHP-2 in the presence of 300 nM DTT
T2 sequence (Q06124 whole entry): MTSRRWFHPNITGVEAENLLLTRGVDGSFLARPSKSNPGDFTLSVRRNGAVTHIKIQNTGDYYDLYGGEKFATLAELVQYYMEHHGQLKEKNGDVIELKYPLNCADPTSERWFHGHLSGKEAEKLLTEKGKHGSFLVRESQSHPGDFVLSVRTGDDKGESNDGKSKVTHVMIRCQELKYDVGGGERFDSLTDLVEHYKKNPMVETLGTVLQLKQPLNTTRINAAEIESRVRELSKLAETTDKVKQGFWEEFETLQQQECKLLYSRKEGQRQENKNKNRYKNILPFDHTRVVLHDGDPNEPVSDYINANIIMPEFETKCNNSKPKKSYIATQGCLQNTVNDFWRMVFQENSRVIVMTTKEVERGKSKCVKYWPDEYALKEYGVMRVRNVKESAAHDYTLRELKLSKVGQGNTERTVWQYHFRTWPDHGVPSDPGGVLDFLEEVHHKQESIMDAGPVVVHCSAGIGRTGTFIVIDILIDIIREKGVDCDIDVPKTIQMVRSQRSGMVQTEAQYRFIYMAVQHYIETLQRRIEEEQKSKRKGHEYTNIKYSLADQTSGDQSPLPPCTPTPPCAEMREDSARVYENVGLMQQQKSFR

Receptor-type tyrosine-protein phosphatase F, sequence (P10586 whole entry): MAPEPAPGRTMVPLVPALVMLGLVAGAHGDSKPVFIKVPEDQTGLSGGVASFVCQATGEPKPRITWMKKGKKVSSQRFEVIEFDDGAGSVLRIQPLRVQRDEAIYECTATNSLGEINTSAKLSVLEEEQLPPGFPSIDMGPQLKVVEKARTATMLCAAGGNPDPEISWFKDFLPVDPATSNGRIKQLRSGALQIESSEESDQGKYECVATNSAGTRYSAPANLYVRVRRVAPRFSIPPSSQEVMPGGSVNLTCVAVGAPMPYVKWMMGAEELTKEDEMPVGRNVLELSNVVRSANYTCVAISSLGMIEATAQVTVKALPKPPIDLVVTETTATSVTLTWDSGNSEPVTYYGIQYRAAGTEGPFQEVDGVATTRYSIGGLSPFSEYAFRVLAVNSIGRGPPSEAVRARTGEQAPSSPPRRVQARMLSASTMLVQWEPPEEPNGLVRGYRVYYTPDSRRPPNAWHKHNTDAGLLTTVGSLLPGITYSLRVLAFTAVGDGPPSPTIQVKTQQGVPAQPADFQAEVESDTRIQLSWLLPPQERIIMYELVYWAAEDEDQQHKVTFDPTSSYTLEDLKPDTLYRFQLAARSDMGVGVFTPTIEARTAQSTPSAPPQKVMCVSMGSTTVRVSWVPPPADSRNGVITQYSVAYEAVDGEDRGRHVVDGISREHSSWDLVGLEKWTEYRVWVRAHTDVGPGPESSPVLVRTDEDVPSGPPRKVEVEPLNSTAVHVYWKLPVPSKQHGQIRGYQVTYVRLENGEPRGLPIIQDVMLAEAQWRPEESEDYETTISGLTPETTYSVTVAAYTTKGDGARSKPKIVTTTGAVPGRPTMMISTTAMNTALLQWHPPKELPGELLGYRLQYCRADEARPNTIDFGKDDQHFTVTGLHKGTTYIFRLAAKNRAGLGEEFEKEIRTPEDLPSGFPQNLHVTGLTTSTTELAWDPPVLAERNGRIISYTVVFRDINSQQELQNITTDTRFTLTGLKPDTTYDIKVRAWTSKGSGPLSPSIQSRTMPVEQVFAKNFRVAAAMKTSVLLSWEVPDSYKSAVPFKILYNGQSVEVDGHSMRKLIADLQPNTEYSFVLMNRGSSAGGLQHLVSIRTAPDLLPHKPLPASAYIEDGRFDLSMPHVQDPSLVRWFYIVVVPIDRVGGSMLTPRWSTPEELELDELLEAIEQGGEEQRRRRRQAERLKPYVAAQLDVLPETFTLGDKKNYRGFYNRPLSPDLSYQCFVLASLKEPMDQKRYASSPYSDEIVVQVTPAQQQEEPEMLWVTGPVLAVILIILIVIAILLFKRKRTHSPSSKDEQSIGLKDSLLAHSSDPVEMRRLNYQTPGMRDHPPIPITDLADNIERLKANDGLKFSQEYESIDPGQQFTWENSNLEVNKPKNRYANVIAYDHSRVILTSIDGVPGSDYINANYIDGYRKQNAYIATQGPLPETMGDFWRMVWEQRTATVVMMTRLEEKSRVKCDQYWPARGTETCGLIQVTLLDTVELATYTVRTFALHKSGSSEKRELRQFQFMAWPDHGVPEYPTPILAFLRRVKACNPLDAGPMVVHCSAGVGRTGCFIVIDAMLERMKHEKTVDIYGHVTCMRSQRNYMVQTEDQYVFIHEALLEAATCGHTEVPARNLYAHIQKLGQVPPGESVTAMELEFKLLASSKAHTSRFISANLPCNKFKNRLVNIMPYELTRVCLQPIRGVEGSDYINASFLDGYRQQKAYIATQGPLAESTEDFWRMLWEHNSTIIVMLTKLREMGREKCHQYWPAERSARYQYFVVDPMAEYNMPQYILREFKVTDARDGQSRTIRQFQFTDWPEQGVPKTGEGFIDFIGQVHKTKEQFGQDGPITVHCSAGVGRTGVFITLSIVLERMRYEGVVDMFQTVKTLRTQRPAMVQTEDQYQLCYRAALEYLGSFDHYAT
Receptor-type tyrosine-protein phosphatase alpha, sequence (P18433 whole entry): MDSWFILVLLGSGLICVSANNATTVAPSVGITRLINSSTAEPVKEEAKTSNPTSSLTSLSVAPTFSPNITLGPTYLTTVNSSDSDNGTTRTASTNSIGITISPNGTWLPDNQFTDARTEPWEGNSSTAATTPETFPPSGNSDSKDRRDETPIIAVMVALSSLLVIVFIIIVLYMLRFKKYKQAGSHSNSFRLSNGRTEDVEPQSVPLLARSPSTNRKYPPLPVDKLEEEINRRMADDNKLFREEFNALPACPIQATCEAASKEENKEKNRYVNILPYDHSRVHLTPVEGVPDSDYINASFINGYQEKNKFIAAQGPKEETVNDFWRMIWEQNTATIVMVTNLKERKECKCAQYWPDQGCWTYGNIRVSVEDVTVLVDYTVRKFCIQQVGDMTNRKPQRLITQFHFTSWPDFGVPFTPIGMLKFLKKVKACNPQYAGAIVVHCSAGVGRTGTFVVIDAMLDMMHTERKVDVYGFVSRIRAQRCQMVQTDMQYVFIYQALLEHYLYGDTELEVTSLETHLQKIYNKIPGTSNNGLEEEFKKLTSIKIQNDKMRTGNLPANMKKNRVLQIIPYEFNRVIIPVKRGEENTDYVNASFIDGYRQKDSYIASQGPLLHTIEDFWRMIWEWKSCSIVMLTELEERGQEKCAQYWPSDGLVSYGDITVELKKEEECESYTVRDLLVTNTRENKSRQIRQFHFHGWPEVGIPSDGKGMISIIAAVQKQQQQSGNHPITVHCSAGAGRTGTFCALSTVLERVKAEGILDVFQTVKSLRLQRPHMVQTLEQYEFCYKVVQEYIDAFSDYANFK

In the case of `Nc1nc(N)c2nc(CN3CCN(c4ccccc4)CC3)nnc2n1`, the IC50 [1] is reported as > 100 µM and the IC50 [2] is reported as > 100 µM.
`Nc1nc(N)c2nc(CN3CCN(Cc4cccc5ccccc45)CC3)nnc2n1` showed an IC50 [1] of 4.5 µM and an IC50 [2] of 40 µM.
For `Nc1nc(N)c2nc(CN3CCN(Cc4ccc5ccccc5c4)CC3)nnc2n1`, the IC50 [1] was 3.5 µM and the IC50 [2] was 33 µM.
For `Nc1nc(N)c2nc(CN3CCN(Cc4ccc(-c5ccccc5)cc4)CC3)nnc2n1`, the IC50 [3] was 15 µM, the “Change in blood glucose” value [4] was -19% and the bioavailability [5] was 97%. The IC50 [1] was 2.9 µM and 8 µM, the Vd [6] was 3.1 L/kg and the Cmax [7] was 4 µM. It also gave an IC50 [8] of 16 µM, an IC50 [2] of 18 µM and a half-life [9] of 1 h. For the same compound, the clearance [10] was 104 mL/min/kg and the IC50 [11] was 5 µM.
With `CCN(CC)Cc1nnc2nc(N)nc(N)c2n1` the IC50 [3] was 28 µM, the IC50 [1] was 29 µM and 12 µM and the IC50 [8] was 28 µM. For the same compound, the IC50 [2] was > 100 µM and the IC50 [11] was 14 µM.
Compound `Nc1nc(N)c2nc(CN3CCNCC3)nnc2n1` has an IC50 [1] of 29 µM and an IC50 [2] of 91 µM.
With `Nc1nc(N)c2nc(CN3CCN(Cc4ccccc4)CC3)nnc2n1` the IC50 [3] was 24 µM, the “Change in blood glucose” value [4] was -23% and the IC50 [1] was 6.2 µM and 8 µM. It also gave an IC50 [8] of 12 µM, an IC50 [2] of 98 µM and an IC50 [11] of 9 µM.
With `Nc1nc(N)c2nc(CN(CCO)CCO)nnc2n1` the IC50 [1] was 97 µM and the IC50 [2] was > 100 µM.
`CN1CCN(Cc2nnc3nc(N)nc(N)c3n2)CC1` gave an IC50 [1] of 21 µM and an IC50 [2] of 87 µM.
With `Nc1nc(N)c2nc(CN3CCCCC3)nnc2n1` the IC50 [1] was 24 µM and the IC50 [2] was > 100 µM.
In the case of `Nc1nc(N)c2nc(CN3CCOCC3)nnc2n1`, the IC50 [1] is reported as 24 µM and the IC50 [2] is reported as > 100 µM.
